Columns and labels:
[1] = molecular target: T1, unphosphorylated c-FMS kinase (uFMS, Seq. ID no. 1) (Homo sapiens, UniProt P07333); assay: uFMS kinase assay (pyruvate kinase/lactate dehydrogenase coupled); assay type: biochemical; settings: ATP 500 μM
T1 construct: purchased Millipore
T1 sequence (P07333 538-972): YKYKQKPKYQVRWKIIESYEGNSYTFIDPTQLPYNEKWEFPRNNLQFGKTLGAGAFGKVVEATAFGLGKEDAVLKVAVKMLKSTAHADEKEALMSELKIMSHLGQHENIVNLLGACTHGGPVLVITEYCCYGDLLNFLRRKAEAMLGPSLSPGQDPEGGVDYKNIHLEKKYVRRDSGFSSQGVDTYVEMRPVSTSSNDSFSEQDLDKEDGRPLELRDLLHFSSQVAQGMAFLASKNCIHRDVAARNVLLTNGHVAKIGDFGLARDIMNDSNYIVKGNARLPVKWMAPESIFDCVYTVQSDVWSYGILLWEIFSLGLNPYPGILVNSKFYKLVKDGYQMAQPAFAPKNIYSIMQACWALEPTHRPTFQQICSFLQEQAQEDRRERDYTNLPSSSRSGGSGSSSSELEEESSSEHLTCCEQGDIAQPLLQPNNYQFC
Protocol: In this assay, the oxidation of NADH (thus the decrease at A340 nm) was continuously monitored spectrophometrically. The reaction mixture (100 μL) contained FMS (purchased from Millipore) (10 nM), polyE4Y (1 mg/mL), MgCl2 (10 mM), pyruvate kinase (4 units), lactate dehydrogenase (0.7 units), phosphoenol pyruvate (1 mM), NADH (0.28 mM) and ATP (500 μM) in 90 mM Tris buffer containing 0.2% octyl-glucoside and 1% DMSO, pH 7.5. The inhibition reaction was started by mixing serial diluted test compound with the above reaction mixture. The absorption at 340 nm was monitored continuously for 4 hours at 30° C. on Synergy 2 plate reader. The reaction rate was calculated using the 3 to 4 h time frame. Percent inhibition was obtained by comparison of reaction rate with that of a control (i.e. in the absence of test compound). IC50 values were calculated from a series of percent inhibition values determined at a range of inhibitor concentrations using software routines as implemented in the GraphPad Prism software package.

[2] = molecular target: T2, unphosphorylated c-KIT kinase (uKIT, Seq. ID no. 2) (Homo sapiens, UniProt P10721); assay: uKit kinase assay (pyruvate kinase/lactate dehydrogenase coupled); assay type: biochemical; settings: ATP 2000 μM
T2 construct: uKit with N-terminal GST fusion used for
Protocol: In this assay, the oxidation of NADH (thus the decrease at A340 nm) was continuously monitored spectrophometrically. […] The inhibition reaction was started by mixing serial diluted test compound with the above reaction mixture. The absorption at 340 nm was monitored continuously for 4 hours at 30° C. on Synergy 2 plate reader (BioTech).

[3] = molecular target: T3, unphosphorylated PDGFRβ kinase (uPDGFRβ, Seq. ID No. 3) (Homo sapiens, UniProt P09619); assay: Unphosphorylated PDGFRβ kinase assay (pyruvate kinase/lactate dehydrogenase coupled); assay type: biochemical; settings: ATP 500 μM
T3 construct: purchased DeCode
Source text: Unphosyhorylated PDGFRβ (uPDGFRβkinase (Seq. ID No. 3) assay

M-NFS-60 cells = assay: M-NFS-60 cell proliferation assay; assay type: cell-based; settings: 67 h incubation, resazurin
Protocol: M-NFS-60 Cell Proliferation Assay A serial dilution of test compound was dispensed into a 384-well black clear bottom plate (Corning, Corning, N.Y.). Two thousand five hundred cells were added per well in 50 μL complete growth medium. […] IC50 values were calculated from a series of percent inhibition values determined at a range of inhibitor concentrations using software routines as implemented in the GraphPad Prism software package.

osteoclast precursors = assay: Osteoclast tartrate-resistant acid phosphatase assay; assay type: cell-based; settings: Osteoclast; 7-14 days, RANKL and M-CSF
[4] = molecular target: T4, phospho-FMS in THP-1 cells (Homo sapiens, UniProt P07333); assay: Phospho-FMS ELISA assay in THP-1 cells; assay type: cell-based; settings: 4 hours compound, M-CSF stimulated; read-out: pFMS inhibition in THP-1 cells
T4 construct: endogenous in cells; host or cells: THP-1 (ATCC TIB-202)
Protocol: In a separate 96 well black clear bottom plate, one hundred and fifty thousand THP-1 cells were added per well in 100 μL in assay medium. Fifty microliters of diluted compound was then added to the cells. […] Lysates were prepared and used to perform the phospho-FMS ELISA as described by the manufacturer (catalog #DYC3268, R & D Systems, Minneapolis, Minn.). GraphPad Prism was used to calculate IC50 values obtained from data generated from the ELISA assay.

c-FMS = assay: cFOS mRNA production in a c-FMS mouse spleen pharmacodynamic model; assay type: in vivo; settings: out to 8 h post 30 mg/kg single oral dose, read-out: inhibition of cFOS mRNA levels
Protocol: Analysis of cFOS mRNA Production in a c-FMS Mouse Spleen Pharmacodynamic Model To examine the in vivo modulation of FMS activity by compounds of formula I, spleen samples from female DBA/1 mice were collected and analyzed for M-CSF stimulated production of cFOS mRNA. Briefly, six to seven week old female Taconic DBA/1BO J Bom Tac mice were treated with a single oral dose (by gavage) of either vehicle or compound. Plasma and spleen samples are collected from four mice at each timepoint 2, 4, 6, 8, 12, 18, and 24 hours after dosing. Fifteen minutes prior to euthanasia, all mice were injected IV with 1 μg (100 μL fixed volume) of M-CSF. M-CSF, Recombinant Mouse Macrophage Colony Stimulating Factor (36.4 kDa homodimer, ≧98% purity) was obtained from Gibco. All procedures carried out in this experiment were conducted in compliance with all the laws, regulations and guidelines of the National Institutes of Health (NIH). cFOS mRNA levels in spleen extracts were determined using a quantitative reverse transcriptase PCR kit from Life Technologies. Plasma levels of FMS inhibitors were determined by mass spectrometer analysis. The degree of FMS inhibition was correlative to the amount of decrease observed in cFOS mRNA levels in the spleen samples of treated animals compared to vehicle.

T4 sequence (P07333 20-972): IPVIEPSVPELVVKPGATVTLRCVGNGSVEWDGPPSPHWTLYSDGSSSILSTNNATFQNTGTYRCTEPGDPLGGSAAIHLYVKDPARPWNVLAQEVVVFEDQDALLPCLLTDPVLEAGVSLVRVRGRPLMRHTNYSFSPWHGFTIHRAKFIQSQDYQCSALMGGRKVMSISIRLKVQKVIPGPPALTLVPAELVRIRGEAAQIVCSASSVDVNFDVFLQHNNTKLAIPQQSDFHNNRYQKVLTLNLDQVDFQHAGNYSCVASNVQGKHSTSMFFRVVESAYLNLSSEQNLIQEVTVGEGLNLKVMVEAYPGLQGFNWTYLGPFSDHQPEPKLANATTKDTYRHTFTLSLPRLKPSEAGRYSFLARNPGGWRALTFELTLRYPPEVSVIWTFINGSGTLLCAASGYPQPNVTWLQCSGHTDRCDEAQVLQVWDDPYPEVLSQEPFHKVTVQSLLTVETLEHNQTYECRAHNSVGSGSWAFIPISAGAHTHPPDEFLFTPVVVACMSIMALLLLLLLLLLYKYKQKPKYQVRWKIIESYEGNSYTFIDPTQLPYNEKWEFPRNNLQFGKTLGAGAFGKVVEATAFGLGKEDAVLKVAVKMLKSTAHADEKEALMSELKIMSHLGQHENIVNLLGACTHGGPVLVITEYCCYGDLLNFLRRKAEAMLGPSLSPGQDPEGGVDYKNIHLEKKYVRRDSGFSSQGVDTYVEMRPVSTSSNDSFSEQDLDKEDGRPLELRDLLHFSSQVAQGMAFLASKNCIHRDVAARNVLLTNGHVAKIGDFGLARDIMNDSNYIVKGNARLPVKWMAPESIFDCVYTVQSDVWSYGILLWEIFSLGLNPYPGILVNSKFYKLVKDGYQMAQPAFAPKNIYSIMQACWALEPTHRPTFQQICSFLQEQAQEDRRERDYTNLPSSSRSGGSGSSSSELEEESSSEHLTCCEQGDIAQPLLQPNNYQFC
T3 sequence (P09619 557-1105): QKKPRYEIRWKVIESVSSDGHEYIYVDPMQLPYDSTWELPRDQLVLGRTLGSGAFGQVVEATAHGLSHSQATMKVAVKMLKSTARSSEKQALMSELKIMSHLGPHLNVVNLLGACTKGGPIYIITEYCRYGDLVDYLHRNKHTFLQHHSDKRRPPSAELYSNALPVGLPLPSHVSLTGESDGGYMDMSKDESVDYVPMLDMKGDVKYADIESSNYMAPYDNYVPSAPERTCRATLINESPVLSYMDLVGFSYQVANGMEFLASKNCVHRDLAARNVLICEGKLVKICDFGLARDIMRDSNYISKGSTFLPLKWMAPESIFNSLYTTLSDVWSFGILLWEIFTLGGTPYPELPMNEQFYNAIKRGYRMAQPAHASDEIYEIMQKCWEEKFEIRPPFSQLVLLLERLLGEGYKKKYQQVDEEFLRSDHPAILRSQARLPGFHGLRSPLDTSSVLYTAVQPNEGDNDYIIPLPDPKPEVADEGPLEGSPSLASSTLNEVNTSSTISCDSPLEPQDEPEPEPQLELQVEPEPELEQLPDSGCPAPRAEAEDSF
T2 sequence (P10721 with tags, fused parts or gaps): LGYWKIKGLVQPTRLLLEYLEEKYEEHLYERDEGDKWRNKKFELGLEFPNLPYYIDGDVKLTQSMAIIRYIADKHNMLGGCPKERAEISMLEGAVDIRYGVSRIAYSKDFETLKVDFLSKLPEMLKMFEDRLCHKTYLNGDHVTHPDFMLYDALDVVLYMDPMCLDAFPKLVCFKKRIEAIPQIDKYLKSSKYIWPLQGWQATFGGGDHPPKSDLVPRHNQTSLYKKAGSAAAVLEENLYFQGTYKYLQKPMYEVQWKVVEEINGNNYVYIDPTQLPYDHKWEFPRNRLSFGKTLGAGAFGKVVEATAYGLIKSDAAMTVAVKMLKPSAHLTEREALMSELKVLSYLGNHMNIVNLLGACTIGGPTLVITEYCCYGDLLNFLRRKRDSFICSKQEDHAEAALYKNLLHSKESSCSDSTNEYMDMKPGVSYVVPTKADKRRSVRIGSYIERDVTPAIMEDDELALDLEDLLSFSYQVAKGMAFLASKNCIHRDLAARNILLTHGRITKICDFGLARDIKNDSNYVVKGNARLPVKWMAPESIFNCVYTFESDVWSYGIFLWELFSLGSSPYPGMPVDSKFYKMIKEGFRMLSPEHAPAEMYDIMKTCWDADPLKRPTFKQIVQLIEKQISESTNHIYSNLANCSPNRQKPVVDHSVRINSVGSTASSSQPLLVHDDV

IC50 [1]: < 10 nM
IC50 [2]: > 1000 nM
IC50 [3]: 10 to 100 nM
IC50 (osteoclast precursors): < 10 nM
IC50 [4]: < 10 nM
SMILES: Cc1nc(NC(=O)NC(=O)C(C)(C)C)ccc1Oc1ccnc(NC(=O)C2CC2)c1 [Example 11, N-(4-((2-methyl-6-(3-pivaloylureido)pyridin-3-yl)oxy)pyridin-2-yl)cyclopropanecarboxamide]
IC50 (M-NFS-60 cells): < 10 nM
inhibition in vivo at 30 mg/kg (c-FMS): ≥ 50%
